{"source": "patent US20090170938A1", "about": "(priority 2005, published 2009)", "tested_on": "Phytophthora infestans", "format": "in vivo, Phytophthora infestans on tomato", "conditions": "active compound application rate 5 ppm; protective spray, tomato; evaluation 3 days after inoculation", "data": [{"smiles": "CON=C(C(=O)OC)c1ccccc1CO/N=C(\\C)c1cccc(C(F)(F)F)c1", "note": "[Trifloxystrobin, 2-[α-{[(α-methyl-3-trifluoromethyl-benzyl)imino]-oxy}-o-tolyl]-glyoxylic acid methyl ester O-methyloxime]", "values": [{"measurement": "% efficacy", "value": 23, "unit": "%"}]}]}
